Measurements: ChEMBL document CHEMBL2203000, “Discovery of AC710, a Globally Selective Inhibitor of Platelet-Derived Growth Factor Receptor-Family Kinases” (ACS Med Chem Lett, 2012)
One block for each molecule: values may come before it. Active and inactive are the calls of the source. No cut-off for these calls is given here.

Columns and labels:
Cytochrome P450 2C19 = Cytochrome P450 2C19 (Homo sapiens, UniProt P33261); test: Inhibition of CYP2C19; assay type: ADME
Cytochrome P450 2C9 = Cytochrome P450 2C9 (Homo sapiens, UniProt P11712); test: Inhibition of CYP2C9; assay type: ADME
Chain of Cytochrome P450 2C9 (P11712 whole entry): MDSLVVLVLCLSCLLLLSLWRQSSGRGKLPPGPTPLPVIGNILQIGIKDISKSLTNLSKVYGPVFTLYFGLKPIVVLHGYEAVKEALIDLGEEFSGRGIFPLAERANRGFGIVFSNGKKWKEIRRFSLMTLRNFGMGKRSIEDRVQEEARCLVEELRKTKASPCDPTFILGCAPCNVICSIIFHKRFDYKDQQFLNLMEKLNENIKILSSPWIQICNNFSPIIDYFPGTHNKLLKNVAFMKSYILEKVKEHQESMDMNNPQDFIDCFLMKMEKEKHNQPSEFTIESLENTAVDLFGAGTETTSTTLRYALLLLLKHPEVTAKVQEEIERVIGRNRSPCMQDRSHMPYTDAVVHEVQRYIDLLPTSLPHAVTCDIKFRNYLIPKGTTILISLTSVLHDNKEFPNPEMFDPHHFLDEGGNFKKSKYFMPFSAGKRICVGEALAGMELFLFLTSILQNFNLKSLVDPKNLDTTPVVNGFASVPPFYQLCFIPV

Rattus norvegicus [1] = test: Toxicity in rat assessed as mortality at 800 mg/kg administered for 7 days; assay type: organism-based; parameters: dose 800 mg/kg; settings: in vivo, 168 h
Cytochrome P450 1A2 = molecular target: T1, Cytochrome P450 1A2 (Homo sapiens, UniProt P05177); test: Inhibition of CYP1A2; assay type: ADME
T1 sequence (P05177 whole entry): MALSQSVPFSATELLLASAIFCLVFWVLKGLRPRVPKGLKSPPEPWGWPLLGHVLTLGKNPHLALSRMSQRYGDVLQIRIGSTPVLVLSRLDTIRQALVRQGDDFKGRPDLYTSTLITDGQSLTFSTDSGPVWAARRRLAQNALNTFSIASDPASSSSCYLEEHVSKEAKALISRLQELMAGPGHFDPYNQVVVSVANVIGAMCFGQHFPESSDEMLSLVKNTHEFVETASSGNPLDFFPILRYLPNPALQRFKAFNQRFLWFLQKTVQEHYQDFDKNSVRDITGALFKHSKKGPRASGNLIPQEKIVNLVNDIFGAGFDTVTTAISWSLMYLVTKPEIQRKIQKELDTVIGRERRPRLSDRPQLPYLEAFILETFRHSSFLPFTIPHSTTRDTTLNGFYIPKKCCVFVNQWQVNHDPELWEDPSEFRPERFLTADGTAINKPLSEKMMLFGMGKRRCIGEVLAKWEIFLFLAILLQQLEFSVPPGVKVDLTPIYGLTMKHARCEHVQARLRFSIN

[2] = Antitumor activity against mouse M-NFS-60 cells xenografted in CD-1 nude mouse assessed as inhibition of tumor growth at 30 mg/kg, po measured after 4 of tumor implantation; assay type: functional; settings: read-out: TGI
[3] = molecular target: T2, Mast/stem cell growth factor receptor Kit (Homo sapiens, UniProt P10721); test: Inhibition of KIT phosphorylation in human H526 cells; assay type: cell-based
T2 sequence (P10721 whole entry): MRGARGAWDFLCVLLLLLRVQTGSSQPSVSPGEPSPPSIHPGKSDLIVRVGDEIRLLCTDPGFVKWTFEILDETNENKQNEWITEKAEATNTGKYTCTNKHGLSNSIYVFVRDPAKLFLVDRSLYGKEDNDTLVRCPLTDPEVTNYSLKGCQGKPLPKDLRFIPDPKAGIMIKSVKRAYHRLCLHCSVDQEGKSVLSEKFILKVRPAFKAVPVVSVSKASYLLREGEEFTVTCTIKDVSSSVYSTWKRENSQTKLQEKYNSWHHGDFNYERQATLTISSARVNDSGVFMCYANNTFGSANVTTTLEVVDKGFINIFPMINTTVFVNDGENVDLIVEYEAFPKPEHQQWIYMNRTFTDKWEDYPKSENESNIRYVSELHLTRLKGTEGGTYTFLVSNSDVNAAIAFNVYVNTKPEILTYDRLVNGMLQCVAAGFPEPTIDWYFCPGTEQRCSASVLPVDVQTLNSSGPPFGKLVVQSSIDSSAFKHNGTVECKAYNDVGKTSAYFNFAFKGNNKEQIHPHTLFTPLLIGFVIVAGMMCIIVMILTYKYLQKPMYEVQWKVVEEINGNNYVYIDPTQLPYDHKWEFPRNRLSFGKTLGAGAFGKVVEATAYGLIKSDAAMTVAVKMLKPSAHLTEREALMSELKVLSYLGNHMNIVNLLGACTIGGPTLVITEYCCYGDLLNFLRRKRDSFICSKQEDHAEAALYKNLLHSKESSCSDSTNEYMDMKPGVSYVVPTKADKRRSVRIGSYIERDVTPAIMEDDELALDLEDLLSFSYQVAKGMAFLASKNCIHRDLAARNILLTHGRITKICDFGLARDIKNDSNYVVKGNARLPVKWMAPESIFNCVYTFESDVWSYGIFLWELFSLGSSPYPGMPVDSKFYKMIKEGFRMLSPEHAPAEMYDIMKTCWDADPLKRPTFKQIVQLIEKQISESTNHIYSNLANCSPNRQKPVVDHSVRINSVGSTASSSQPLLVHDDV

[4] = Clearance in Sprague-Dawley rat plasma at 1 mg/kg, iv and 10 mg/kg, po by LC-MS/MS analysis; assay type: ADME, organism-based
[5] = Antitumor activity against mouse M-NFS-60 cells xenografted in CD-1 nude mouse assessed as inhibition of tumor growth at 100 mg/kg, po measured after 4 of tumor implantation; assay type: functional; settings: read-out: TGI
Rattus norvegicus [6] = test: Toxicity in rat assessed as diarrhea at 800 mg/kg administered for 7 days; assay type: organism-based; parameters: dose 800 mg/kg; settings: in vivo, 168 h
[7] = AUC in po dosed CD-1 mouse by LC-MS/MS analysis; assay type: ADME, organism-based; settings: plasma
[8] = (§1) Oral bioavailability in Sprague-Dawley rat plasma at 10 mg/kg by LC-MS/MS analysis; assay type: ADME, organism-based; settings: Sprague-Dawley, plasma
[9] = (§2) AUC in Sprague-Dawley rat plasma at 10 mg/kg, po by LC-MS/MS analysis; assay type: ADME, organism-based; parameters: dose 10 mg/kg, route oral; settings: Sprague-Dawley, plasma
Cytochrome P450 2D6 = Cytochrome P450 2D6 (Homo sapiens, UniProt P10635); test: Inhibition of CYP2D6; assay type: ADME
Chain of Cytochrome P450 2D6 (P10635 whole entry): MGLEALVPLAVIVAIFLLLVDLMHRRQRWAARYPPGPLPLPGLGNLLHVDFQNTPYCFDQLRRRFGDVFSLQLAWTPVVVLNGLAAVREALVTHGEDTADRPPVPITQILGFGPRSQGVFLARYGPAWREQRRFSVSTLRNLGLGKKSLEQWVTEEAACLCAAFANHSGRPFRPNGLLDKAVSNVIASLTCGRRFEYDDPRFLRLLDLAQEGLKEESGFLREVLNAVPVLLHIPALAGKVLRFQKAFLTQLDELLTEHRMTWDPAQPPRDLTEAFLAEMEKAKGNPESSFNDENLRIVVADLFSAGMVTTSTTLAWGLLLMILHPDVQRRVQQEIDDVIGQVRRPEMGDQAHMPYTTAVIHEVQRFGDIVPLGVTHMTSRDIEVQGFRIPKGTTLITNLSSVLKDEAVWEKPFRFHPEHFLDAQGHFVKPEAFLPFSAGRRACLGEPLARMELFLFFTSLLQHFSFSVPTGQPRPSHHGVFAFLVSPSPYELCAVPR

Cytochrome P450 3A4 = Cytochrome P450 3A4 (Homo sapiens, UniProt P08684); test: Inhibition of CYP3A4; assay type: ADME
Chain of Cytochrome P450 3A4 (P08684 whole entry): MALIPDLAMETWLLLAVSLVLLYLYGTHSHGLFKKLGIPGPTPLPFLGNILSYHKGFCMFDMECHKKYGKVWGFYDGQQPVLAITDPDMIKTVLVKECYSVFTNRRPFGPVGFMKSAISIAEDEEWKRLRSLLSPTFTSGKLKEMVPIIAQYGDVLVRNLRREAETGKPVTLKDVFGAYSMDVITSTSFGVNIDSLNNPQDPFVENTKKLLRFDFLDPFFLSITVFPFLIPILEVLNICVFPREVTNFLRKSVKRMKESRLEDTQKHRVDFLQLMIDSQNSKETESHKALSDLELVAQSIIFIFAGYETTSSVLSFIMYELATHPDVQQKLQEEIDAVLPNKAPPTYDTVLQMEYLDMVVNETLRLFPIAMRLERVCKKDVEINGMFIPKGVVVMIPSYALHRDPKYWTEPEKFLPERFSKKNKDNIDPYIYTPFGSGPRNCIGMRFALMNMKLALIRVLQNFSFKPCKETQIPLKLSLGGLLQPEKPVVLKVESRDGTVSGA

Rattus norvegicus [10] = test: Toxicity in rat assessed as effect on body weight at 800 mg/kg administered for 7 days; assay type: organism-based; parameters: dose 800 mg/kg; settings: in vivo, 168 h
[11] = molecular target: T2, Mast/stem cell growth factor receptor Kit; test: Binding affinity to KIT expressed in HEK-293 cells; assay type: cell-based, HEK293
Rattus norvegicus [12] = test: Toxicity in rat at 200 mg/kg administered for 7 days; assay type: organism-based; parameters: dose 200 mg/kg; settings: in vivo, 168 h
NFS-60 = test: Antitumor activity against mouse M-NFS-60 cells xenografted in CD-1 nude mouse assessed as inhibition of tumor growth measured after 4 days of tumor implantation; assay type: functional, cell-based
[13] = Aqueous solubility of the compound in water; assay type: physicochemical
Rattus norvegicus [14] = test: as §1; assay type: ADME, organism-based; settings: in vivo
Rattus norvegicus [15] = test: as §2; assay type: ADME, organism-based; parameters: dose 10 mg/kg, route oral; settings: in vivo
Mus musculus [16] = test: Antiarthritic activity in po dosed collagen-induced arthritis mouse assessed as decrease in paw clinical scores administered for 15 days; assay type: functional, organism-based
MV4-11 [17] = test: Antitumor activity against human MV4-11 cells xenografted in SCID mouse assessed as complete reduction in tumor volume at 3 to 30 mg/kg for 2 weeks; assay type: functional, organism-based
MV4-11 [18] = test: Antitumor activity against human MV4-11 cells xenografted in SCID mouse assessed as reduction in tumor volume at 0.3 mg/kg for 2 weeks; assay type: functional, organism-based; parameters: dose 0.3 mg/kg
Mus musculus [19] = test: Antiarthritic activity in collagen-induced arthritis mouse assessed as decrease in joint swelling and inflammation at 10 to 30 mg/kg, po for 15 days; assay type: functional, organism-based

Chain of Cytochrome P450 2C19 (P33261 whole entry): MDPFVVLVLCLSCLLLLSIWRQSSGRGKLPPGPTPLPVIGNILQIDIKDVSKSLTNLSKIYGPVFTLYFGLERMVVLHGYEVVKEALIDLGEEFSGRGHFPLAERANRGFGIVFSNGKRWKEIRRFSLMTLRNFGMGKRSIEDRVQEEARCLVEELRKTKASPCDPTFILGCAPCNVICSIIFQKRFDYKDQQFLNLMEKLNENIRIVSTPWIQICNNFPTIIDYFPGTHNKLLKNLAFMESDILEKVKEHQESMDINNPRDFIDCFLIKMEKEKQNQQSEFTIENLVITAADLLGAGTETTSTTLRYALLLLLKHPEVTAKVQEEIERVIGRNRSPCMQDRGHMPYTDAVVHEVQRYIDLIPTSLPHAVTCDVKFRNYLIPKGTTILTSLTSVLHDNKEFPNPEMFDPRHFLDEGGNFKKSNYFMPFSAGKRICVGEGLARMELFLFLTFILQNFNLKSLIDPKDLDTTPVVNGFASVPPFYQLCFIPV

Structure (SMILES): CN1C(C)(C)CC(Oc2ccc(C(=O)Nc3ccc(NC(=O)Nc4cc(C(C)(C)C)on4)cc3)nc2)CC1(C)C
- IC50 (Cytochrome P450 2C19): > 40 µM
- IC50 (Cytochrome P450 2C9): > 40 µM
- Activity (Rattus norvegicus [1]): Toxic
- IC50 (Cytochrome P450 1A2): > 40 µM
- inhibition in vivo at 30 mg/kg [2]: 82%
- IC50 [3]: 0.008 µM
- clearance [4]: 10.9 mL/min/kg
- inhibition in vivo at 100 mg/kg [5]: 92%
- Activity (Rattus norvegicus [6]): Toxic
- AUC [7]: 65.8 µM·h
- bioavailability [8]: 31.5%
- AUC [9]: 9.1 µM·h
- IC50 (Cytochrome P450 2D6): > 40 µM
- IC50 (Cytochrome P450 3A4): > 40 µM
- Activity (Rattus norvegicus [10]): Toxic
- Kd [11]: 0.0011 µM
- Activity (Rattus norvegicus [12]): Non-toxic

Structure (SMILES): CCN1CCC(Oc2ccc(C(=O)Nc3ccc(NC(=O)Nc4cc(C(C)(C)C)on4)cc3)nc2)CC1
- inhibition (NFS-60): Dose-dependent effect

Structure (SMILES): CCN1C(C)(C)CC(Oc2ccc(C(=O)Nc3ccc(NC(=O)Nc4cc(C(C)(C)C)on4)cc3)nc2)CC1(C)C.CS(=O)(=O)O
- solubility [13]: > 1000 µg/mL

- F (Rattus norvegicus [14]): 1%
- AUC (Rattus norvegicus [15]): 1.6 µM·h
Structure (SMILES): CC(C)(C)c1cc(NC(=O)Nc2ccc(NC(=O)c3ccc(OC4CCNCC4)cn3)cc2)no1

- clearance [4]: 24 mL/min/kg
- bioavailability [8]: 12%
- AUC [9]: 1.4 µM·h
Structure (SMILES): CCN1CCC(Cc2ccc(C(=O)Nc3ccc(NC(=O)Nc4cc(C(C)(C)C)on4)cc3)nc2)CC1

Structure (SMILES): CCN1C(C)(C)CC(Oc2ccc(C(=O)Nc3ccc(NC(=O)Nc4cc(C(C)(C)C)on4)cc3)nc2)CC1(C)C
- inhibition (Mus musculus [16]): Active
- inhibition (NFS-60): Dose-dependent effect
- Activity (MV4-11 [17]): Active
- Activity (MV4-11 [18]): Active
- inhibition (Mus musculus [19]): Active

Structure (SMILES): CN1C(C)(C)CC(Oc2ccc(C(=O)Nc3ccc(NC(=O)Nc4cc(C(C)(C)C)on4)cc3)nc2)CC1(C)C.CS(=O)(=O)O
- solubility [13]: > 1000 µg/mL

- solubility [13]: 1130 µg/mL
Structure (SMILES): CCN1CCC(Oc2ccc(C(=O)Nc3ccc(NC(=O)Nc4cc(C(C)(C)C)on4)cc3)nc2)CC1.CS(=O)(=O)O

- clearance [4]: 15 mL/min/kg
- bioavailability [8]: 22%
- AUC [9]: 5 µM·h
Structure (SMILES): CC(C)(C)c1cc(NC(=O)Nc2ccc(NC(=O)c3ccc(OC4CCN(C(C)(C)C)CC4)cn3)cc2)no1
